These results are taken from patent publication US8999952B2, “Aripiprazole complex formulation and method” (Otsuka Pharmaceutical Co., Ltd., priority 2002, dated 2015).

One data set in a line: aqueous solubility. Format: physicochemical. The conditions noted are these: water; at room temperature.
The nature of data set [1]: tissue irritation at the intramuscular injection site. Format: in vivo. The conditions noted are these: intramuscular (IM) injectable solution in water-miscible co-solvent and water-immiscible solvent/co-solvent systems.

Some results are limits rather than exact numbers.

Broadly, the solubility is the dissolved amount per volume that the medium holds. In the case of `O=C1CCc2ccc(OCCCCN3CCN(c4cccc(Cl)c4Cl)CC3)cc2N1` [Aripiprazole], in “aqueous solubility”, the solubility is under 1 µg/mL. In addition, the “tissue irritation at the muscular site” value in data set [1] is recorded as “unacceptable (moderate to severe) tissue irritation”.
